Reference: PMC3375340 (Journal of Medicinal Chemistry, 2012)
Values after ≈ are worked out from the molar mass of the structure shown.

Legend:
[1] = molecular target: M. tuberculosis MenA (Mycobacterium tuberculosis, UniProt P9WIP3); assay: MenA enzyme inhibitory assay; assay type: biochemical; conditions: for IC50: MenA Inhibition IC50, Mtb MenA, dose-response of DMMK formation
[2] = tested on: M. tuberculosis electron transport system; assay: Oxygen consumption assay; assay type: cell-based; conditions: for electron transport system inhibition (conclusion): from oxygen consumption assay
[3] = tested on: M. bovis, M. intracellulare, and M. smegmatis; assay type: cell-based, Mycobacterium species
[4] = in vitro; conditions: monkey
[5] = tested on: M. tuberculosis H37Rv; assay: Microplate alamar blue assay; assay type: cell-based; conditions: Mycobacterium tuberculosis, read-out: MIC against Mtb (MABA)
[6] = tested on: M. bovis BCG; assay: microbe, parasite or virus in culture; assay type: cell-based; conditions: Mycobacterium tuberculosis variant bovis BCG
[7] = tested on: M. intracellulare ATCC15984; assay: MIC, Mycobacterium species panel; assay type: cell-based
[8] = tested on: M. tuberculosis H37Rv; assay: MIC, Mycobacterium species panel; assay type: cell-based

Chain of M. tuberculosis MenA (P9WIP3 whole entry): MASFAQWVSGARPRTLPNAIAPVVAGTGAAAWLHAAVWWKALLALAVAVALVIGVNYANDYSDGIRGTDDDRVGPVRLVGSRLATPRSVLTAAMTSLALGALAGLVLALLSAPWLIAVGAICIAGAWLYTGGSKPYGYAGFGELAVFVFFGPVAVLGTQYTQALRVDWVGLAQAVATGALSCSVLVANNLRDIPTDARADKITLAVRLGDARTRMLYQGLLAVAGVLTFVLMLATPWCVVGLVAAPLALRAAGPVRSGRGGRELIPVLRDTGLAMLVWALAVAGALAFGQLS

## CCCCCC[C@H](CN1CCC(COc2cccc(C(=O)c3ccc(Cl)cc3)c2)CC1)OC(N)=O [(R)-12, (R)-1-(4-((3-(4-chlorobenzoyl)phenoxy)methyl)piperidin-1-yl)octan-2-yl carbamate]
[1]; Mtb MenA IC50 comparison
  fold better MenA enzyme inhibitory activity compared to the alcohol (R)-11: 6 fold
[2]
  electron transport system inhibition (conclusion): very weak (or are not) electron transport system inhibitors
[3]
  killing concentration, other Mycobacterium species: 3.0~6.5 μg/mL

## CCCCCC[C@H](CN1CCC(COc2cccc(C(=NOC)c3ccc(Cl)cc3)c2)CC1)OC(N)=O [(R)-13, (R)-1-(4-((3-((4-Chlorophenyl)(methoxyimino)methyl)phenoxy)methyl)piperidin-1-yl)octan-2-yl carbamate]
[1]
  IC50: 1.2 µM
[4]
  selectivity ratio: > 10
[5]
  MIC: 2.31 mg/L (≈ 4.36 µM)
[3]
  killing concentration, other Mycobacterium species: 3.0~6.5 μg/mL
[6]
  MIC: 2.95 mg/L (≈ 5.56 µM)
[7]
  MIC: 6.5 mg/L (≈ 12.3 µM)

## CCCCCCC[C@@H](O)c1cccc(CN2CCC(COc3cccc(C(=NOC)c4ccc(Cl)cc4)c3)CC2)c1 [(R)-15, (R)-(4-chlorophenyl)(3-((1-(3-(1-hydroxyoctyl)benzyl)piperidin-4-yl)methoxy)phenyl)methanone O-methyl oxime]
[1]
  IC50: 15 µM

## CCCCCC[C@H](CN1CCC(COc2ccc(C(=O)c3ccc(Cl)cc3)c(Cl)c2)CC1)OC(N)=O [(R)-17, (R)-1-(4-((3-chloro-4-(4-chlorobenzoyl)phenoxy)methyl)piperidin-1-yl)octan-2-yl carbamate]
[2]
  electron transport system inhibition (conclusion): very weak (or are not) electron transport system inhibitors

## CCCCCCC[C@@H](O)c1cccc(CN2CCC(COc3ccc(C(=NOC)c4ccc(Cl)cc4)c(Cl)c3)CC2)c1 [(R)-20, (R)-(2-Chloro-4-((1-(3-(1-hydroxyoctyl)benzyl)piperidin-4-yl)methoxy)phenyl)(4-chlorophenyl) methanone O-methyl oxime]
[1]
  IC50: 15 µM

## CCCCCCC[C@H](O)c1cccc(CN2CCC(COc3cccc(C(=O)c4ccc(Cl)cc4)c3)CC2)c1 [(S)-3, (S)-(4-chlorophenyl)(3-((1-(3-(1-hydroxyoctyl)benzyl)piperidin-4-yl)methoxy)phenyl) methanone]
[1]
  IC50: 20 µM

## CCCCCC[C@@H](CN1CCC(COc2ccc(C(=O)c3ccc(Cl)cc3)c(Cl)c2)CC1)OC(N)=O [(S)-17]
[2]; Mtb, 37 °C, 22h, above the MIC
  concentration showing decolorization of methylene blue: 12.5 µg/mL

## CCCCCCC[C@H](O)c1cccc(CN2CCC(COc3ccc(C(=NOC)c4ccc(Cl)cc4)c(Cl)c3)CC2)c1 [(S)-20, (S)-(2-Chloro-4-((1-(3-(1-hydroxyoctyl)benzyl)piperidin-4-yl)methoxy)phenyl)(4-chlorophenyl) methanone O-methyl oxime]
[1]
  IC50: 20 µM

## NNC(=O)c1ccncc1 [INH, isoniazid]
[8]
  MIC: 0.24 mg/L (≈ 1.75 µM)
